SMILES strings stand for the structures. In brackets after ≈: the same amount, converted by molar mass. Like-named read-outs stand apart in the source and are kept apart here.

The text below walks through data of patent US10174035B2, “6-morpholinyl-2-pyrazolyl-9H-purine derivatives and their use as PI3K inhibitors” (Daiichi Sankyo Company, Limited, priority 2015, dated 2019).

One series has as its target PI3Kα (Homo sapiens (Human), UniProt P42336). Put plainly: In vitro enzyme assay (Kinase-Glo), selectivity, PI3Kα. The series is classed as biochemical. The following applies: enzyme 2.29 μg/mL; ATP 10 μM; PIP2 60 μM; 2 hours. The essentials: (§1)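 Each recombinant human PI3K isoform at 2.29 μg/mL with 60 μM PIP2 and 10 μM ATP in HEPES pH 7.4, NaCl, CHAPS, MgCl2, DTT, 2 hours at room temperature. Remaining ATP read by Kinase-Glo luminescence relative to no-enzyme blanks.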

Series [1] relates to eosinophil count in bronchoalveolar lavage fluid. Briefly: Ovalbumin-induced airway eosinophilia model in Brown Norway rats. The class given is in vivo. The following applies: oral, bid; absolute eosinophil count in BAL fluid. How it is done: The protocols were followed in similar fashion as described in Clin. Exp. Immunol., 2001; 126:9-15 and J. Pharmacol. Exp. Ther., 2011; 337:145-54. Male Brown Norway rats were sensitized by intraperitoneal injection of a suspension of 1 mg of ovalbumin and 100 mg of aluminum hydroxide (in sterile 0.9% saline) on day 0 and 7. On day 14, the compounds were administered to the rats by oral gavage. One hour after oral administration, the animals were placed into a perspex chamber and exposed to an aerosol of 5% ovalbumin for ten minutes. Compounds were administered on Day 14 and Day 15 either once or twice daily. Forty-eight hours after ovalbumin challenge, the animals were euthanized and bronchoalveolar lavage fluid was collected. The cell suspensions were processed and absolute eosinophil count was enumerated.

The target in series [2] is recombinant PI3K δ enzyme (Homo sapiens (Human), UniProt O00329). Briefly: In vitro enzyme assay (Kinase-Glo luminescent kinase assay), PI3Kδ. The series is classed as biochemical. The method, boiled down:
as §1

A further series concerns the target PI3Kγ (Homo sapiens (Human), UniProt P48736). Put plainly: In vitro enzyme assay (Kinase-Glo), selectivity, PI3Kγ. The following applies: enzyme 2.29 μg/mL; ATP 10 μM; PIP2 60 μM; 2 hours. The class given is biochemical.
Series [3] relates to eosinophil count in bronchoalveolar lavage fluid. Put plainly: House dust mite (HDM) induced chronic asthma model in Balb/c mice. The series is classed as in vivo. The following applies: oral twice daily from week 3 to week 5; absolute eosinophil count in BAL fluid. As for the experimental part:
The protocol was followed as described in Am. J. Respir. Crit. Care Med., 2004; 169: 378-385. Female Balb/c mice were exposed to purified HDM (Dermatophagoides pteronyssinus) extract, intranasally (25 μg of protein in 20 μl of saline) for 5 days/week for up to five consecutive weeks. Compounds were administered orally twice daily from week 3 to week 5. Forty-eight hours after last HDM exposure, the animals were euthanized and bronchoalveolar lavage fluid was collected. The cell suspensions were processed and absolute eosinophil count was enumerated.

The target in the next series is PI3Kβ (Homo sapiens (Human), UniProt P42338). Briefly: In vitro enzyme assay (Kinase-Glo), selectivity, PI3Kβ. The series is classed as biochemical. The following applies: enzyme 2.29 μg/mL; ATP 10 μM; PIP2 60 μM; 2 hours. The essentials: as §1
The nature of series [4]: Solubility in Japanese Pharmacopeia First Fluid (JP1) and Second Fluid (JP2). The class given is physicochemical. The following applies: thermodynamic from solid, room temperature. How it is done:
A 10 mmol/L solution of the test compound was prepared in DMSO and dispensed 100 μL of 10 mmol/L DMSO stock solutions into labeled glass tubes in duplicate, one for Japanese Pharmacopeia First Fluid (JP1) and second for Japanese Pharmacopeia Second Fluid (JP2). After evaporation of DMSO from each tube, 500 μL of JP1 and JP2 fluid were added in each tube, respectively. These tubes were sonicated for 1 minute and placed on shaker for 30 minutes with an interval of 30 seconds at every 5 minute. Tubes were placed in dark at room temperature for 1 hour and solution was filtered through membrane filter. The filtrate was diluted 2-fold and 10-fold. The resulting test solutions was analyzed and quantified against the standards using UPLC (standard preparation-10 mmol/L solution in DMSO is serially diluted with 50% aqueous acetonitrile solution to prepare 2 solutions; 100 μmol/L standard solution and 5 μmol/L standard solution).

In series [5] the test system is IFN-γ release in mouse splenocytes. Briefly: Phytohaemagglutinin (PHA)-induced interferon (IFN)-gamma release in mouse splenocytes. Also on record: species or system C57BL/6 mouse. The following applies: Splenocyte, PHA (10 μg/ml) for 48 hours, IFN-γ by ELISA, read-out: Cell Based IC50.
The mark [6] stands for this setting: pH 1.2, simulated gastric fluid, Japanese Pharmacopeia First Fluid (JP1), read-out: Solubility JP1.
[7] abbreviates: pH 6.8, aqueous buffer, Japanese Pharmacopeia Second Fluid (JP2), read-out: Solubility JP2.

Sequence of PI3Kα (P42336 whole entry, species assumed, canonical isoform): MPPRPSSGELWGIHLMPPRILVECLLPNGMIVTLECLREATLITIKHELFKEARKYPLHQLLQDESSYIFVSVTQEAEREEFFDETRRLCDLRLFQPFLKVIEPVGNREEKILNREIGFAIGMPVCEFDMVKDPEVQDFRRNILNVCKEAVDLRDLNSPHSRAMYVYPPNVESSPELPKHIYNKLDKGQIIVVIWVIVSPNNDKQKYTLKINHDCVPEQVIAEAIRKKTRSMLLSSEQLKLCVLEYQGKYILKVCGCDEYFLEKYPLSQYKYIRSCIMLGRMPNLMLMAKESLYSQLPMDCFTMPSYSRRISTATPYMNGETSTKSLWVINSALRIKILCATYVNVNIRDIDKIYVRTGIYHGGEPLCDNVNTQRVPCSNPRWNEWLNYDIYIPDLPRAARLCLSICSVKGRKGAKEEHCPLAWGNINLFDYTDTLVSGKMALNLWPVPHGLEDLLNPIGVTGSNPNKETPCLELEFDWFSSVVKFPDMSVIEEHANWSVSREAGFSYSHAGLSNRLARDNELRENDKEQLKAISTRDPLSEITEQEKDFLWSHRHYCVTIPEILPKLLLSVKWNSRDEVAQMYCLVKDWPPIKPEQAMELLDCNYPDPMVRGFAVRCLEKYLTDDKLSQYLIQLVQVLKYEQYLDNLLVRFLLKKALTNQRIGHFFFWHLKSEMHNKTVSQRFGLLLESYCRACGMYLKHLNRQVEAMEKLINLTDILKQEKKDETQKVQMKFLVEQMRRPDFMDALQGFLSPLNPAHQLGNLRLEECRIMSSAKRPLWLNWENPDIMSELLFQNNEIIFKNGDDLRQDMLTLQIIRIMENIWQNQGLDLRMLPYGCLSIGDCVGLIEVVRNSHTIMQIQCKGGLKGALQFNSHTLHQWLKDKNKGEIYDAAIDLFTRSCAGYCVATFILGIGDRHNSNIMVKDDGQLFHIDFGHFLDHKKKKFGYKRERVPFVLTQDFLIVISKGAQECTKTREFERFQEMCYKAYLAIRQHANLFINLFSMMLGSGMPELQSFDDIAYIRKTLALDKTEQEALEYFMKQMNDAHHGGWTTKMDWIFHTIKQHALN
Sequence of PI3Kα (P27986 whole entry partner, species assumed, canonical isoform): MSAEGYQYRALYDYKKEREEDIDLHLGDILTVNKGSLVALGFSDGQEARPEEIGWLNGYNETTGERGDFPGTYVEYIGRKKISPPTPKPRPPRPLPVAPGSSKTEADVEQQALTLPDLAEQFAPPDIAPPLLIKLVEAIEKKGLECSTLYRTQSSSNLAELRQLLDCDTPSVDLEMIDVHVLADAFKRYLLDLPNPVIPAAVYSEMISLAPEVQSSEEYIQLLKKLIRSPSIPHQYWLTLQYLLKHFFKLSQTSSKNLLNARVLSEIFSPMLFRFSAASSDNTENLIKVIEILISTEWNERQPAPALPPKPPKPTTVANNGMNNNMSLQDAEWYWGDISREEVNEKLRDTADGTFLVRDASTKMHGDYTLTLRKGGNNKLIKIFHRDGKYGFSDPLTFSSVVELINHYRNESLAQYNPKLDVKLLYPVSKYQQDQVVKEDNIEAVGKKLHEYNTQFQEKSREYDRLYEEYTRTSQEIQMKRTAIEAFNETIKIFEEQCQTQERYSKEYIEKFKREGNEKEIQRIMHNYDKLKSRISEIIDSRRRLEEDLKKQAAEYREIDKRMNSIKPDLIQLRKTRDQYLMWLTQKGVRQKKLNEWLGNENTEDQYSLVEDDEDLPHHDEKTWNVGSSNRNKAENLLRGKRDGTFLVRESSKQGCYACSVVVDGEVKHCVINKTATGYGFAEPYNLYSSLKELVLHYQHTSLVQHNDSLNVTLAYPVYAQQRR
Sequence of PI3Kγ (P48736 whole entry, species assumed): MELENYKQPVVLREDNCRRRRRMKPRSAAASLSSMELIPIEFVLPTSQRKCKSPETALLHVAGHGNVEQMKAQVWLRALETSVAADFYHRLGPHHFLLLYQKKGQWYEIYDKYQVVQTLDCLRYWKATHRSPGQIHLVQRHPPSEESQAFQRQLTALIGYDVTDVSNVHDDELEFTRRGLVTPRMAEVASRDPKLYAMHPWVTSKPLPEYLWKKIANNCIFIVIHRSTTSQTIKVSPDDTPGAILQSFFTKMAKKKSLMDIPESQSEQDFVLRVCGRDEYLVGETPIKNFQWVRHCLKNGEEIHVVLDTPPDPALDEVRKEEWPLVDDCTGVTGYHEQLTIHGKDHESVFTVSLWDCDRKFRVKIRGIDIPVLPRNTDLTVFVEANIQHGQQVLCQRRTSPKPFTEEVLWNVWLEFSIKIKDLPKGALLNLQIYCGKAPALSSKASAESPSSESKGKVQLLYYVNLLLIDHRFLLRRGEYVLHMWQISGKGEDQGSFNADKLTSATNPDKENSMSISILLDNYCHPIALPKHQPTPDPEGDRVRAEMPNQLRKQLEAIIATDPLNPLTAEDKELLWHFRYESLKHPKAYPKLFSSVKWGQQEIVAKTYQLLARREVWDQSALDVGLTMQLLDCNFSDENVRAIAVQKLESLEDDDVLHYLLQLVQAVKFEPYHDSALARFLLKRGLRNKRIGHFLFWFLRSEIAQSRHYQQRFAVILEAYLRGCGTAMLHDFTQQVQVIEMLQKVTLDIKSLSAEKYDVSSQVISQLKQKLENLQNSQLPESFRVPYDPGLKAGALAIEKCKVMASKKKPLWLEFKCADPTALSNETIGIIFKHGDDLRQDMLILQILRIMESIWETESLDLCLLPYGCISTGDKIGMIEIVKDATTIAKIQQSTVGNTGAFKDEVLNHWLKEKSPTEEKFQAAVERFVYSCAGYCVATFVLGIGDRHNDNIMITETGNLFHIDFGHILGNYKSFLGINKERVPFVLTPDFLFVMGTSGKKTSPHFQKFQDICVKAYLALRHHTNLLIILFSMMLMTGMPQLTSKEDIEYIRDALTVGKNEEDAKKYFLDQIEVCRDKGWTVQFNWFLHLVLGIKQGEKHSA
Sequence of recombinant PI3K δ enzyme (O00329 whole entry, species assumed): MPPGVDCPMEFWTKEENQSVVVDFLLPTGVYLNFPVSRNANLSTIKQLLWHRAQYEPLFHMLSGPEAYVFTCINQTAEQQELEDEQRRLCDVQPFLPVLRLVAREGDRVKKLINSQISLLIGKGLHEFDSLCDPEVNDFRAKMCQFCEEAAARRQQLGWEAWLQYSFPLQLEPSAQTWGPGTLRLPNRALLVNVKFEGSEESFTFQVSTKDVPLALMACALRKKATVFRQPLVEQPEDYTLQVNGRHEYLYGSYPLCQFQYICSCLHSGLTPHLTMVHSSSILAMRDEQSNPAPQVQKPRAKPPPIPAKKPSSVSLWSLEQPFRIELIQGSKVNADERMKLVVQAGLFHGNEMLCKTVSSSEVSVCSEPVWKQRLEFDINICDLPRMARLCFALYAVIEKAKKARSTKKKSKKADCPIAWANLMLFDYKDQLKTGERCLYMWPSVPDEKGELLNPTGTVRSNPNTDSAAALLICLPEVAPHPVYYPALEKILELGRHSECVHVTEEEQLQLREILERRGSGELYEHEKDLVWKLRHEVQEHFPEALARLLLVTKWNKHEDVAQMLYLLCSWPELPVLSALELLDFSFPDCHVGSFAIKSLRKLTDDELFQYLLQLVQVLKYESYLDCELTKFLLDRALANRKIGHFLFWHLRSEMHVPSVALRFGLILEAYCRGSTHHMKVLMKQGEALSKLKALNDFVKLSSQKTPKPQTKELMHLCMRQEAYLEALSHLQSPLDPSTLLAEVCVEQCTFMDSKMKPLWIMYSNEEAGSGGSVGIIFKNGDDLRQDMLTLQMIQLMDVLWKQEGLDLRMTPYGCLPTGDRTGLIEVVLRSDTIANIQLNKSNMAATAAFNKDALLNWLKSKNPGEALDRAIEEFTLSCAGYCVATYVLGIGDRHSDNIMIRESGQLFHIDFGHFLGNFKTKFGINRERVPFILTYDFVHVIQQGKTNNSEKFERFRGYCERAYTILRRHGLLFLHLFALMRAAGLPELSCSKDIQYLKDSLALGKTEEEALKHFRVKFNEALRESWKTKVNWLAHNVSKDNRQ
Sequence of recombinant PI3K δ enzyme (P27986 whole entry partner, species assumed): as the sequence (P27986 whole entry partner, species assumed, canonical isoform) above
Sequence of PI3Kβ (P42338 whole entry, species assumed): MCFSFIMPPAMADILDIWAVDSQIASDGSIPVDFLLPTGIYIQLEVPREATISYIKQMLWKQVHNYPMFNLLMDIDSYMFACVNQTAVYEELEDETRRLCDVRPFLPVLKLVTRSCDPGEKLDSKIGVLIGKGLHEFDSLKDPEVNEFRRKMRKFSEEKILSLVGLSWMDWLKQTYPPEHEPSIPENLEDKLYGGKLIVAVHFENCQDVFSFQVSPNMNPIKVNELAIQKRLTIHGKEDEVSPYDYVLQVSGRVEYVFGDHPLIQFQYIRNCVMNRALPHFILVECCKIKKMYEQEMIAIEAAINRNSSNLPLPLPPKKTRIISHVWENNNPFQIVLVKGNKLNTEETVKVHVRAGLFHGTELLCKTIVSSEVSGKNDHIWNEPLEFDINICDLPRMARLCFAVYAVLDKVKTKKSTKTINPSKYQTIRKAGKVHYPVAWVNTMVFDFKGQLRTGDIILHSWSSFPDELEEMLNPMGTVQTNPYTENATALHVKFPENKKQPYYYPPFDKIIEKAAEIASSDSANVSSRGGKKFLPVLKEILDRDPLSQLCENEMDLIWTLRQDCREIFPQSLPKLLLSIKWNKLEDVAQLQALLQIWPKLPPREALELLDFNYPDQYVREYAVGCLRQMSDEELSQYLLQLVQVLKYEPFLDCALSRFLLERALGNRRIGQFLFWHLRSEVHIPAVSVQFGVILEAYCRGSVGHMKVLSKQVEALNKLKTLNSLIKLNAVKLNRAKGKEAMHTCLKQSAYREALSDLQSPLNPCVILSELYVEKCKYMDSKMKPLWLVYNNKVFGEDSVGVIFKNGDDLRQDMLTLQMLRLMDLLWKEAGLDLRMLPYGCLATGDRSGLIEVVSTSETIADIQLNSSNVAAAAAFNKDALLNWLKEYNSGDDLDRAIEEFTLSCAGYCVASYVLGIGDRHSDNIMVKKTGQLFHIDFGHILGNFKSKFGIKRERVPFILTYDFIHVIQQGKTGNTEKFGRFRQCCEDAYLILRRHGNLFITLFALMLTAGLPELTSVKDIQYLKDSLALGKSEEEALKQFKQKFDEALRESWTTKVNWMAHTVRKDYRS
Sequence of PI3Kβ (P27986 whole entry partner, species assumed): as the sequence (P27986 whole entry partner, species assumed, canonical isoform) above

In the case of `Cn1cc(-c2nc(N3CCOCC3)c3nc(C(=O)N4CCC(N5CCOCC5)CC4)[nH]c3n2)cn1` [Compound No. 58, [2-(1-methyl-1H-pyrazol-4-yl)-6-(morpholin-4-yl)-9H-purin-8-yl][4-(morpholin-4-yl)piperidin-1-yl]methanone], the 50% inhibitory concentration (IC50) on PI3Kα is above 1 µM; in series [2], 0.014 µM; in series [2] (enzyme 2.29 μg/mL, ATP 10 μM, PIP2 60 μM, 2 hours) it was 0.014 µM; against PI3Kγ it was above 1 µM; at PI3Kβ it was above 10 µM; in series [5] it was 0.006 µM. The ED50 is 0.3 mg/kg, bid in series [1] and 0.1 mg/Kg, bid in series [3]. Also, the solubility at 30 min in series [4] (setting [6]) was above 1.2 mg/mL; in series [4] (setting [7]), 0.17 mg/mL (≈ 353 µM).

With `C[C@@H]1CN(C2CCN(C(=O)c3nc4c(N5CCOCC5)nc(-c5cnn(C)c5)nc4[nH]3)CC2)C[C@H](C)O1` [compound 5, {4-[cis-2,6-Dimethylmorpholin-4-yl]piperidin-1-yl}[2-(1-methyl-1H-pyrazol-4-yl)-6-(morpholin-4-yl)-9H-purin-8-yl]methanone], the values for the IC50 (on PI3Kα; on PI3Kγ; in series [5]) were above 1 µM, 1.18 µM and 0.111 µM, respectively. Further, the ED50 in series [3] is given as 1.6 mg/Kg, bid. Moreover, the solubility at 30 min in series [4] (setting [6]) is 0.834 mg/mL (≈ 1640 µM); in series [4] (setting [7]), 0.286 mg/mL (≈ 561 µM).
